From patent publication US8791132B2, “Compounds and methods for treatment of hypertension” (Medivation Technologies, Inc., priority 2011, dated 2014)

Tests used:
[1] = molecular target: T1, human recombinant adrenergic α2A receptor (Homo sapiens, UniProt P08913); test: Radioligand binding, adrenergic α2A ([3H]MK-912); conditions: for Percentage inhibition of ligand binding, Adrenergic α2A (0.1 μM): compound at 0.1 μM; for Percentage inhibition of ligand binding, Adrenergic α2A (0.1 μM) / inhibition at 0.03 µM / inhibition at 0.1 µM: [3H]MK-912, repeat datapoints each shown; for inhibition at 0.03 µM: read-out: Percentage inhibition of ligand binding, Adrenergic α2A (0.03 μM), compound at 0.03 μM; for inhibition at 0.1 µM: read-out: Percentage inhibition of ligand binding, Adrenergic α2A (0.1 μM), compound at 0.1 μM
T1 construct: expressed in transfected cells; host or cells: insect Sf9 cells
T1 sequence (P08913 1-465): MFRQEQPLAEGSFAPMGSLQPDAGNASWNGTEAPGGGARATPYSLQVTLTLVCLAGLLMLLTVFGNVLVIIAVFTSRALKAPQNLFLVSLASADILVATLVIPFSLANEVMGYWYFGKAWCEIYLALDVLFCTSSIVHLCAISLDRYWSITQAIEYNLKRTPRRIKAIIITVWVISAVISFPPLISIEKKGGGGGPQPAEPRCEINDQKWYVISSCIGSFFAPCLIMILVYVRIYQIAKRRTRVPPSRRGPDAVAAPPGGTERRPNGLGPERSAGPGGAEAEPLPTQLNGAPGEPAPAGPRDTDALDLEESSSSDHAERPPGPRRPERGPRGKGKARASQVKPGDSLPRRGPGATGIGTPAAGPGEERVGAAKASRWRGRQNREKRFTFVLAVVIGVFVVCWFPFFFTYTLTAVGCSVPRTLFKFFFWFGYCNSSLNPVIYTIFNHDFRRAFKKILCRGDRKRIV
How it was run: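 Sf9 membranes, 1 nM [3H]MK-912, 60 min, 25 °C, Tris-HCl pH 7.4/MgCl2/EDTA buffer. NSB: 10 μM WB-4101. Filtration, counting; % inhibition of specific binding.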

[2] = molecular target: T2, rat adrenergic α1B receptor (Rattus norvegicus, UniProt P15823); test: Radioligand binding, adrenergic α1B ([3H]Prazosin); conditions: [3H]Prazosin, repeat datapoints each shown; for Percentage inhibition of ligand binding, Adrenergic α1B (0.1 μM): compound at 0.1 μM; for inhibition at 0.03 µM: read-out: Percentage inhibition of ligand binding, Adrenergic α1B (0.03 μM), compound at 0.03 μM; for inhibition at 0.1 µM: read-out: Percentage inhibition of ligand binding, Adrenergic α1B (0.1 μM), compound at 0.1 μM
T2 construct: rat adrenergic α1B receptor obtained from Wistar Rat liver; from tissue; host or cells: Wistar rat liver
T2 sequence (P15823 1-515): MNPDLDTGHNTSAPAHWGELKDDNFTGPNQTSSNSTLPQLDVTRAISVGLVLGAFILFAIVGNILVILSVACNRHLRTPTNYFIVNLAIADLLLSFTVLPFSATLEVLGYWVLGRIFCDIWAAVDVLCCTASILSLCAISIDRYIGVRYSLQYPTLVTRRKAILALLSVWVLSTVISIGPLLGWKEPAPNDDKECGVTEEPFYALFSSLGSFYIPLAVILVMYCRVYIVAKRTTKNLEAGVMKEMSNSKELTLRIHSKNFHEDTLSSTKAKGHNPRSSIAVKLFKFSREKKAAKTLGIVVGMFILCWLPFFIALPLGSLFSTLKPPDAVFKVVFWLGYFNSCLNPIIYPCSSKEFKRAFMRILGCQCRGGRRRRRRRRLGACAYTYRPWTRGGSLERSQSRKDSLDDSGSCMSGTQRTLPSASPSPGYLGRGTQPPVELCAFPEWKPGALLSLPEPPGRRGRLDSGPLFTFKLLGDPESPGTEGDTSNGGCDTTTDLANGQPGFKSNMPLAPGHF
How it was run: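 Specific binding, taken as total minus that remaining with 10 μM phentolamine, is measured after filtration and counting. Rat liver receptor preparation and 0.25 nM [3H]prazosin are incubated with compound in 50 mM Tris-HCl (pH 7.4, 0.5 mM EDTA) at 25° C for 60 min. Activity is reported as percent inhibition.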

[3] = molecular target: T3, human recombinant adrenergic α2B receptor (Homo sapiens, UniProt P18089); test: Radioligand binding, adrenergic α2B ([3H]Rauwolscine); conditions: for Percentage inhibition of ligand binding, Adrenergic α2B (0.03 μM): compound at 0.03 μM; for Ki: read-out: Ki α2B; for inhibition at 0.03 µM: read-out: Percentage inhibition of ligand binding, Adrenergic α2B (0.03 μM), compound at 0.03 μM
T3 construct: expressed in transfected cells; host or cells: CHO-K1
T3 sequence (P18089 1-450): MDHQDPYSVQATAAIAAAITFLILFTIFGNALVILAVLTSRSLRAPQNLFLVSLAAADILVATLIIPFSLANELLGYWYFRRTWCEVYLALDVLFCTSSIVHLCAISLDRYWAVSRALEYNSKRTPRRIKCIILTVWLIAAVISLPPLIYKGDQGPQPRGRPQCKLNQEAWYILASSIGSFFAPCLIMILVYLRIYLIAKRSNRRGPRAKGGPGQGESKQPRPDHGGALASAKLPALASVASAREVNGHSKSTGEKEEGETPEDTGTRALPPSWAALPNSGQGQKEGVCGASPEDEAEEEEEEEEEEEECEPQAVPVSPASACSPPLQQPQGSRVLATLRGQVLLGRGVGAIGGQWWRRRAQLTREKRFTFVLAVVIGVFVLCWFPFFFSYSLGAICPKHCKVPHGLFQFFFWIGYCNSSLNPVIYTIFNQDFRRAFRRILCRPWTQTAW
How it was run: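 Assay used CHO-K1-expressed human α2B receptor in Tris-HCl pH 7.4 buffer with MgCl2, EDTA and BSA; 60 min incubation at 25 °C.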

[4] = [3H]Rauwolscine, repeat datapoints each shown

| SMILES | Percentage inhibition of ligand binding, Adrenergic α2A (0.1 μM) [1] | Percentage inhibition of ligand binding, Adrenergic α1B (0.1 μM) [2] | Percentage inhibition of ligand binding, Adrenergic α2B (0.03 μM) [3, 4] | Ki [1] | inhibition at 0.03 µM [1] | inhibition at 0.1 µM [1] | inhibition at 0.03 µM [2] | inhibition at 0.1 µM [2] | Ki [3] | inhibition at 0.03 µM [3, 4] | inhibition at 0.1 µM ([3]; read-out: Percentage inhibition of ligand binding, Adrenergic α2B (0.1 μM), compound at 0.1 μM, [3H]Rauwolscine, repeat datapoints each shown) |
| --- | --- | --- | --- | --- | --- | --- | --- | --- | --- | --- | --- |
| Cc1cc(C)c2c(c1)c1c(n2CC(O)c2ccncc2)CCN2CCCC12 (single isomer, unassigned) [II-125a, 2-(8,10-dimethyl-2,3,5,6-tetrahydro-1H-indolizino[7,8-b]indol-7(11cH)-yl)-1-(pyridin-4-yl)ethanol] | 62% | 92% | 100% |  |  |  |  |  |  |  |  |
| Cc1cc(C)c2c(c1)c1c(n2CC(O)c2ccncc2)CCN2CCCC12 (single isomer, unassigned) [II-125b, 2-(8,10-dimethyl-2,3,5,6-tetrahydro-1H-indolizino[7,8-b]indol-7(11cH)-yl)-1-(pyridin-4-yl)ethanol] | 98% | 102% | 106% | 1.21 nM | 89% | 97% | 89% | 97% | 0.16 nM | 103% |  |
| Cc1cc(C)c2c(c1)c1c(n2CC(O)c2ccncc2)CCN2CCCC12 (single isomer, unassigned) [II-125c, 2-(8,10-dimethyl-2,3,5,6-tetrahydro-1H-indolizino[7,8-b]indol-7(11cH)-yl)-1-(pyridin-4-yl)ethanol] | 9% | 42% | 67% |  |  |  |  |  |  |  |  |
| Cc1cc(C)c2c(c1)c1c(n2CC(O)c2ccncc2)CCN2CCCC12 (single isomer, unassigned) [II-125d, 2-(8,10-dimethyl-2,3,5,6-tetrahydro-1H-indolizino[7,8-b]indol-7(11cH)-yl)-1-(pyridin-4-yl)ethanol] | 71% | 64% | 88% |  |  |  |  |  |  |  |  |
| Cc1ccc2c(c1)c1c(n2CC(C)(O)c2cccnc2)CCN2CCCC12 (single isomer, unassigned) [II-127a, 1-(9-methyl-1,2,3,4,5,10c-hexahydro-3a,6-diaza-cyclopenta[c]fluoren-6-yl)-2-pyridin-3-yl-propan-2-ol] | 79% |  |  |  |  |  |  | 83% |  | 105% |  |
| Cc1ccc2c(c1)c1c(n2CC(C)(O)c2cccnc2)CCN2CCCC12 (single isomer, unassigned) [II-127b, 1-(9-methyl-1,2,3,4,5,10c-hexahydro-3a,6-diaza-cyclopenta[c]fluoren-6-yl)-2-pyridin-3-yl-propan-2-ol] | 54% | 65% | 104% |  |  |  |  |  |  |  |  |
| Cc1ccc2c(c1)c1c(n2CC(C)(O)c2ccc(C)nc2)CCN2CCCC12 (single isomer, unassigned) [II-128b, 1-(9-methyl-1,2,3,4,5,10c-hexahydro-3a,6-diaza-cyclopenta[c]fluoren-6-yl)-2-(6-methyl-pyridin-3-yl)-propan-2-ol] | 77% | 86% | 106% | 13.1 nM | 50% | 74% | 56% | 84% | 0.49 nM | 102% |  |
| CC(O)(Cn1c2c(c3cc(Cl)ccc31)C1CCCN1CC2)c1cccnc1 (single isomer, unassigned) [II-130a, 1-(10-chloro-2,3,5,6-tetrahydro-1H-indolizino[7,8-b]indol-7(11cH)-yl)-2-(pyridin-3-yl)propan-2-ol] | 86% | 92% | 103% |  |  |  |  |  |  |  |  |
| CC(O)(Cn1c2c(c3cc(Cl)ccc31)C1CCCN1CC2)c1cccnc1 (single isomer, unassigned) [II-130b, 1-(10-chloro-2,3,5,6-tetrahydro-1H-indolizino[7,8-b]indol-7(11cH)-yl)-2-(pyridin-3-yl)propan-2-ol] | 15% | 3% | 33% |  |  |  |  |  |  |  |  |
| Cc1ccc2c(c1)c1c(n2CC(O)c2cc[nH]c(=O)c2)CCN2CCCC12 (single isomer, unassigned) [II-132a, 4-(2-(2,3,5,6-tetrahydro-10-methyl-1H-indolizino[7,8-b]indol-7(11cH)-yl)-1-hydroxyethyl)pyridin-2(1H)-one] | 8% | 33% | 40% |  |  |  |  |  |  |  |  |
| Cc1ccc2c(c1)c1c(n2CC(O)c2cc[nH]c(=O)c2)CCN2CCCC12 (single isomer, unassigned) [II-132b, 4-(2-(2,3,5,6-tetrahydro-10-methyl-1H-indolizino[7,8-b]indol-7(11cH)-yl)-1-hydroxyethyl)pyridin-2(1H)-one] | 22% | 68% | 70% |  |  |  |  |  |  |  |  |
| Cc1ccc2c(c1)c1c(n2CC(C)(O)c2cccnc2)CCN(C)CC1 (single isomer, unassigned) [II-135b, 1-(3,9-dimethyl-2,3,4,5-tetrahydroazepino[4,5-b]indol-6(1H)-yl)-2-(pyridin-3-yl)propan-2-ol] |  | 70% | 105% |  |  | 40% | 26% | 60% | 0.53 nM | 103% | 105% |
